Data published in US10219516B2, “Molecules having pesticidal utility, and intermediates, compositions, and processes, related thereto” (priority 2015, dated 2019).

Tests used:
Format in all cases: in vivo
[1] = system: Yellow Fever Mosquito (Aedes aegypti, AEDSAE); assay: Bioassay on Yellow Fever Mosquito (YFM), 96-well plate larval assay; conditions: Species YFM (Yellow Fever Mosquito)
How it was run: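 Each well was scored for mortality after 3 days at room temperature under a non-evaporative lid. Test molecules came from DMSO masters (4000 ppm stock) diluted with water/acetone 90:10 and dispensed into six replicate plates, which were then infested with roughly 1-day-old larvae in liver-powder water.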

[2] = system: Cabbage Looper (Trichoplusia ni, TRIPNI); assay: Bioassay on Cabbage Looper (CL), 128-well diet tray assay; conditions: Trichoplusia ni; Species CL (Cabbage Looper); read-out: CL (Biological Results, rating)
How it was run: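 Second-instar larvae, one to five per well, placed on artificial diet treated with 50 μg/cm^2 test molecule in 90:10 acetone-water, dried before infestation. Held 5–7 days at 25° C, 14:10 light-dark; percent mortality averaged over eight wells.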

[3] = system: Beet Armyworm (Spodoptera exigua, LAPHEG); assay: Bioassay on Beet Armyworm (BAW), 128-well diet tray assay; conditions: Species BAW (Beet Armyworm), read-out: BAW (Biological Results, rating)
How it was run: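 Test molecule dissolved in acetone-water 90:10 is applied at 50 μg/cm^2 onto artificial diet and allowed to dry. Second instar larvae, one to five per well, are then added, and trays are vented and kept at 25° C. for five to seven days before mortality is scored.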

Row | SMILES | YFM (Biological Results, rating) [1] | pest or weed control at 50 µg/cm2 [2] [%] | pest or weed control at 50 µg/cm2 [3] [%]
1 | O=C(Nc1ncc(I)cc1F)c1cc(NC(=O)[C@H]2[C@H](c3cc(Cl)cc(Cl)c3)C2(Cl)Cl)ccc1Cl (relative stereo) [F312, 2-Chloro-5-(trans)-(2,2-dichloro-3-(3,5-dichlorophenyl)cyclopropane-1-carboxamido)-N-(3-fluoro-5-iodopyridin-2-yl)benzamide] | A (80-100) | 50 to 100 | 50 to 100
2 | C=Cc1ccc([C@H]2[C@H](C(=O)Nc3ccc(Cl)c(C(=O)Nc4ccc(F)cc4F)c3)C2(Cl)Cl)cc1Cl (relative stereo) [F319, 2-Chloro-5-(trans-2,2-dichloro-3-(3-chloro-4-vinylphenyl)cyclopropane-1-carboxamido)-N-(2,4-difluorophenyl)benzamide] | A (80-100) | 50 to 100 | 50 to 100
3 | N#Cc1cc(F)ccc1NC(=O)c1cc(NC(=O)[C@H]2[C@H](c3ccc(Br)c(Cl)c3)C2(Cl)Cl)ccc1Cl (relative stereo) [F320, 5-(trans-3-(4-Bromo-3-chlorophenyl)-2,2-dichlorocyclopropane-1-carboxamido)-2-chloro-N-(2-cyano-4-fluorophenyl)benzamide] | A (80-100) | 50 to 100 | 50 to 100
4 | Cc1cc(NC(=O)OC(C)(C)C)ccc1NC(=O)c1cc(NC(=O)[C@H]2[C@H](c3ccc(Br)c(Cl)c3)C2(Cl)Cl)ccc1Cl (relative stereo) [F322, tert-Butyl (4-(5-(trans-3-(4-bromo-3-chlorophenyl)-2,2-dichlorocyclopropane-1-carboxamido)-2-chlorobenzamido)-3-methylphenyl)carbamate] | A (80-100) | 50 to 100 | 50 to 100
5 | CNc1ccc(NC(=O)c2cc(NC(=O)[C@H]3[C@H](c4ccc(Br)c(Cl)c4)C3(Cl)Cl)ccc2Cl)c(C)c1 (relative stereo) [F323, 5-(trans-3-(4-bromo-3-chlorophenyl)-2,2-dichlorocyclopropane-1-carboxamido)-2-chloro-N-(2-methyl-4-(methylamino)phenyl)benzamide] | A (80-100) | 50 to 100 | 50 to 100
6 | Cc1cc(N)ccc1NC(=O)c1cc(NC(=O)[C@H]2[C@H](c3ccc(Br)c(Cl)c3)C2(Cl)Cl)ccc1Cl (relative stereo) [F324, N-(4-Amino-2-methylphenyl)-5-(trans-3-(4-bromo-3-chlorophenyl)-2,2-dichlorocyclopropane-1-carboxamido)-2-chlorobenzamide] | A (80-100) | 50 to 100 | 50 to 100
7 | Nc1c(F)ccc(NC(=O)c2cc(NC(=O)[C@H]3[C@H](c4ccc(Br)c(Cl)c4)C3(Cl)Cl)ccc2Cl)c1F (relative stereo) [F325, N-(3-Amino-2,4-difluorophenyl)-5-(trans-3-(4-bromo-3-chlorophenyl)-2,2-dichlorocyclopropane-1-carboxamido)-2-chlorobenzamide] | A (80-100) | 50 to 100 | 50 to 100
8 | Nc1cccc(NC(=O)c2cc(NC(=O)[C@H]3[C@H](c4cc(Cl)cc(Cl)c4)C3(Cl)Cl)ccc2Cl)n1 (relative stereo) [F326, trans-N-(6-aminopyridin-2-yl)-2-chloro-5-(2,2-dichloro-3-(3,5-dichlorophenyl)cyclopropane-1-carboxamido)benzamide] | A (80-100) | 50 to 100 | 50 to 100
9 | Nc1cccc(NC(=O)c2cc(NC(=O)[C@H]3[C@H](c4ccc(F)c(Cl)c4)C3(Cl)Cl)ccc2Cl)n1 (relative stereo) [F327, N-(6-Aminopyridin-2-yl)-2-chloro-5-(trans-2,2-dichloro-3-(3-chloro-4-fluorophenyl)cyclopropane-1-carboxamido)benzamide] | A (80-100) | 50 to 100 | 50 to 100
10 | C=Cc1ccc([C@H]2[C@H](C(=O)Nc3ccc(Cl)c(C(=O)N(C)c4ccc(F)cc4)c3)C2(Cl)Cl)cc1Cl (relative stereo) [F329, 2-Chloro-5-(trans-2,2-dichloro-3-(3-chloro-4-vinylphenyl)cyclopropane-1-carboxamido)-N-(4-fluorophenyl)-N-methylbenzamide] | A (80-100) | 50 to 100 | 50 to 100
11 | O=C(Nc1ccc(F)cc1)c1cc(NC(=O)[C@H]2[C@H](c3ccc(Cl)c(Br)c3)C2(Cl)Cl)ccc1Cl (relative stereo) [F330, 5-(trans-3-(3-Bromo-4-chlorophenyl)-2,2-dichlorocyclopropane-1-carboxamido)-2-chloro-N-(4-fluorophenyl)benzamide] | A (80-100) | 50 to 100 | 50 to 100
12 | O=C(Nc1ccc(F)cc1F)c1cc(NC(=O)[C@H]2[C@H](c3ccc(Cl)c(Br)c3)C2(Cl)Cl)ccc1Cl (relative stereo) [F331, 5-(trans-3-(3-Bromo-4-chlorophenyl)-2,2-dichlorocyclopropane-1-carboxamido)-2-chloro-N-(2,4-difluorophenyl)benzamide] | A (80-100) | 50 to 100 | 50 to 100
13 | N#Cc1cc(F)ccc1NC(=O)c1cc(NC(=O)[C@H]2[C@H](c3ccc(Cl)c(Br)c3)C2(Cl)Cl)ccc1Cl (relative stereo) [F332, 5-(trans-3-(3-Bromo-4-chlorophenyl)-2,2-dichlorocyclopropane-1-carboxamido)-2-chloro-N-(2-cyano-4-fluorophenyl)benzamide] | A (80-100) | 50 to 100 | 50 to 100
14 | N#Cc1cc(F)ccc1NC(=O)c1cc(NC(=O)[C@H]2[C@H](c3cc(Cl)cc(Br)c3)C2(Cl)Cl)ccc1Cl (relative stereo) [F333, 5-(trans-3-(3-Bromo-5-chlorophenyl)-2,2-dichlorocyclopropane-1-carboxamido)-2-chloro-N-(2-cyano-4-fluorophenyl)benzamide] | A (80-100) | 50 to 100 | 50 to 100
15 | Cc1cc(NC(=O)OC(C)(C)C)ccc1NC(=O)c1cc(NC(=O)[C@H]2[C@H](c3ccc(Cl)c(Br)c3)C2(Cl)Cl)ccc1Cl (relative stereo) [F334, tert-Butyl (4-(5-(trans-3-(3-bromo-4-chlorophenyl)-2,2-dichlorocyclopropane-1-carboxamido)-2-chlorobenzamido)-3-methylphenyl)carbamate] | A (80-100) | 50 to 100 | 50 to 100
16 | Cc1cc(N)ccc1NC(=O)c1cc(NC(=O)[C@H]2[C@H](c3cc(Cl)cc(Br)c3)C2(Cl)Cl)ccc1Cl (relative stereo) [F337, N-(4-Amino-2-methylphenyl)-5-(trans-3-(3-bromo-5-chlorophenyl)-2,2-dichlorocyclopropane-1-carboxamido)-2-chlorobenzamide] | A (80-100) | 50 to 100 | 50 to 100
17 | Nc1c(F)ccc(NC(=O)c2cc(NC(=O)[C@H]3[C@H](c4cc(Cl)cc(Br)c4)C3(Cl)Cl)ccc2Cl)c1F (relative stereo) [F339, N-(3-Amino-2,4-difluorophenyl)-5-(trans-3-(3-bromo-5-chlorophenyl)-2,2-dichlorocyclopropane-1-carboxamido)-2-chlorobenzamide] | A (80-100) | 50 to 100 | 50 to 100
18 | N#Cc1cc(F)ccc1NC(=O)c1cc(NC(=O)[C@H]2[C@H](c3cccc(C(F)(F)F)c3)C2(Cl)Cl)ccc1Cl (relative stereo) [F340, trans-2-Chloro-N-(2-cyano-4-fluorophenyl)-5-(2,2-dichloro-3-(3-(trifluoromethyl)phenyl)cyclopropane-1-carboxamido)benzamide] | A (80-100) | 50 to 100 | 50 to 100
19 | Nc1c(F)ccc(NC(=O)c2cc(NC(=O)[C@H]3[C@H](c4cccc(C(F)(F)F)c4)C3(Cl)Cl)ccc2Cl)c1F (relative stereo) [F341, trans-N-(3-Amino-2,4-difluorophenyl)-2-chloro-5-(2,2-dichloro-3-(3-(trifluoromethyl)phenyl)cyclopropane-1-carboxamido)benzamide] | A (80-100) | 50 to 100 | 50 to 100
20 | N#Cc1cc(Cl)cc([C@H]2[C@H](C(=O)Nc3ccc(Cl)c(C(=O)Nc4ncc(F)cc4F)c3)C2(Cl)Cl)c1 (relative stereo) [F342, trans-2-Chloro-5-(2,2-dichloro-3-(3-chloro-5-cyanophenyl)cyclopropane-1-carboxamido)-N-(3,5-difluoropyridin-2-yl)benzamide] | A (80-100) | 50 to 100 | 50 to 100
